Reference: US20260297060A1, “COMPOUNDS FOR THE DEGRADATION OF MUTANT BRAF” (C4 THERAPEUTICS, INC., priority 2023, published 2026)
Read-outs that look alike come from different tables or passages of the source. Blank lines part the entries; values can stand above or below the molecule they belong to.

How the values were obtained:
[1] = target: T1, human bile salt export pump (BSEP) efflux transporter (Homo sapiens, UniProt O95342); test: BSEP Vesicular Transport Inhibition Assay (IC50 determination); assay type: biochemical; details: human BSEP (HEK293) vesicles; taurocholate 0.2 μM; 4 mM Mg-ATP; 10 concentrations, 1 replicate; in nM
T1 construct: purchased SOLVO Biotechnology Charles River Laboratories, Szeged, Hungary; host or cells: HEK293 (inside out membrane vesicles)
Procedure, shortened: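 Inside-out membrane vesicles from HEK293 cells expressing human BSEP were incubated with taurocholate probe substrate and compound (10 concentrations, single replicate) with 4 mM Mg-ATP, or 4 mM AMP for background, for 5 min at 37 °C. Vesicle-trapped substrate was quantified by liquid scintillation counting after filtration.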

[2] = Example 6 pharmacokinetics assay for efficacy study (plasma, liver); assay type: in vivo, BALB/c nude mice; details: mouse, po, p.o., QD × 21 days
Protocol: For efficacy study, compounds were tested in the A375 human melanoma xenografts. Known BRAF inhibitors encorafenib, and dabrafenib were used as positive controls. Encorafenib and dabrafenib were administered to BALB/c nude mice bearing A375 tumors on PG-D1 and dosed PO daily (QD) for 3 weeks. Encorafenib was dosed at 35 mg/kg. Dabrafenib was dosed at 100 mg/kg. Compound 83, Compound 93, Compound 70, and Compound 54 were administered to BALB/c nude mice bearing A375 tumors on PG-DO and dosed PO twice per day (BID) for 3 weeks. Compound 83, Compound 93, Compound 70, and Compound 54 were dosed at 10 mg/kg.
The plasma samples were collected at predetermined time points for PK analysis. The mice were euthanized at predetermined time points post the treatment. The blood samples were collected into the 1.5 mL Eppendorf tubes containing 15 μL of 0.5 M EDTA-K2. And then the anticoagulant blood samples were centrifuged at 2,500 g at 4° C. for 15 minutes. The plasma samples were separated into 2 aliquots. The 1st was used for PK analysis, and the 2nd served as backup. The samples were stored at −80° C. before bioanalysis.
Liver samples were collected at predetermined time points for PK analysis. The left lobe of the liver was dissected out and split into 2 parts. The 1st part was used for PK analysis and the 2nd part served as the backup for the study. The samples were transferred into pre-labeled tubes and quickly froze in liquid nitrogen within 2 minutes after dissection. The samples were stored at −80° C. before bioanalysis.
For efficacy study, the harvested plasma and liver were processed for pharmacokinetics analysis by LC/MS/MS with a concentration range of 2.00-2000 ng/mL for Encorafenib and Dabrafenib in plasma, 0.20-200 ng/mL for Encorafenib and Dabrafenib in liver, 50.0-50000 ng/mL for compound 83 and compound 70 in plasma, 20.0-20000 ng/mL for Compound 93 and Compound 54 in plasma, 5.00-5000 ng/mL for compound 93, compound 83, compound 70 and compound 54 in liver.

T1 sequence (O95342 whole entry): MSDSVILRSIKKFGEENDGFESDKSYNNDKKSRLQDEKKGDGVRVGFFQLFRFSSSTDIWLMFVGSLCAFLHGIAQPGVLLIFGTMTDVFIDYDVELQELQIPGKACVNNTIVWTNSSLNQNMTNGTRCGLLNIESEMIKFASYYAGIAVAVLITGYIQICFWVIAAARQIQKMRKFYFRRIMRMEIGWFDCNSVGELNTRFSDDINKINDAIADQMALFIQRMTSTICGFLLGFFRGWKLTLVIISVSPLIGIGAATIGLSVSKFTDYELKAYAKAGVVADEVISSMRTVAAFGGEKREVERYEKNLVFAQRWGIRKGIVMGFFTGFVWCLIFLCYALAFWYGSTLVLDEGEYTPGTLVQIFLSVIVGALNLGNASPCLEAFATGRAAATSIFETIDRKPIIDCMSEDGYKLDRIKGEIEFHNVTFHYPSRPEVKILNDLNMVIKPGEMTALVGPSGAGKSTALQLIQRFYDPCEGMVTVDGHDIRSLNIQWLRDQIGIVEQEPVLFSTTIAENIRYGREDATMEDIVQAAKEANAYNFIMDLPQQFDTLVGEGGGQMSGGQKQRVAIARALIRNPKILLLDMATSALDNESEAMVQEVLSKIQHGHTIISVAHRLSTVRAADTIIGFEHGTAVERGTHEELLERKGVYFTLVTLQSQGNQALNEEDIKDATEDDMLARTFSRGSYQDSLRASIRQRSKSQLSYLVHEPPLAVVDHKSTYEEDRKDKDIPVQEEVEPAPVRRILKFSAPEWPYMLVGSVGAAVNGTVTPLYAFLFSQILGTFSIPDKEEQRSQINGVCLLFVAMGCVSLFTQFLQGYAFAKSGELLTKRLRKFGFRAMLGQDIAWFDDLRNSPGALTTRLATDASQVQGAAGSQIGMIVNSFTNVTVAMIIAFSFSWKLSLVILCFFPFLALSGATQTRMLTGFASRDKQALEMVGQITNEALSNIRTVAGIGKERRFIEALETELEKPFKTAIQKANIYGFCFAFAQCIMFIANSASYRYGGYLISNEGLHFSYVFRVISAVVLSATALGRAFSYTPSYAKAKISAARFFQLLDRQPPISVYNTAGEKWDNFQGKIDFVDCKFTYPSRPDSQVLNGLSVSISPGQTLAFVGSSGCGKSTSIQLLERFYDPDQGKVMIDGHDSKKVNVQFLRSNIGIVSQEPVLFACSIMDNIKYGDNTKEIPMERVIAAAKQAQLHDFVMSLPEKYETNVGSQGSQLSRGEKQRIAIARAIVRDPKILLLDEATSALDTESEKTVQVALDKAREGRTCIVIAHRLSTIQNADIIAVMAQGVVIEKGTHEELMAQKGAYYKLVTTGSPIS

Structure (SMILES): CO[C@@H]1CCN(S(=O)(=O)Nc2ccc(F)c(Oc3ccc4ncn(C5CC6(CCN(C7CC8(C7)CN(c7cc9c(cc7F)c(N7CCC(=O)NC7=O)nn9C)C8)CC6)C5)c(=O)c4c3)c2C#N)C1 (stereo partly drawn) [Compound 269, (3R)-N-[2-cyano-3-[3-[7-[2-[3-(2,4-dioxohexahydropyrimidin-1-yl)-5-fluoro-1-methyl-indazol-6-yl]-2-azaspiro[3.3]heptan-6-yl]-7-azaspiro[3.5]nonan-2-yl]-4-oxo-quinazolin-6-yl]oxy-4-fluoro-phenyl]-3-methoxy-pyrrolidine-1-sulfonamide]
- BSEP Inhibition/IC50 [1]: >40000

Structure (SMILES): COC1CN(S(=O)(=O)Nc2ccc(F)c(Oc3ccc4ncn(C5CC6(CCN(C7CC8(C7)CN(c7cc9c(cc7F)c(N7CCC(=O)NC7=O)nn9C)C8)CC6)C5)c(=O)c4c3)c2C#N)C1 (stereo not drawn) [Compound 280, N-[2-cyano-3-[3-[7-[2-[3-(2,4-dioxohexahydropyrimidin-1-yl)-5-fluoro-1-methyl-indazol-6-yl]-2-azaspiro[3.3]heptan-6-yl]-7-azaspiro[3.5]nonan-2-yl]-4-oxo-quinazolin-6-yl]oxy-4-fluoro-phenyl]-3-methoxy-azetidine-1-sulfonamide]
- BSEP Inhibition/IC50 [1]: 26550

- concentration at 6 h ([2]; liver, 100 mg/kg, read-out: Concentration in Liver (mean ± SEM)): 216 ± 30.8 ng/g
- concentration at 6 h ([2]; plasma, 100 mg/kg, read-out: Concentration in Plasma (mean ± SEM)): 86.1 ± 15.4 ng/mL
Structure (SMILES): CC(C)(C)c1nc(-c2cccc(NS(=O)(=O)c3c(F)cccc3F)c2F)c(-c2ccnc(N)n2)s1 [Dabrafenib, dabrafenib, reference compound]

Structure (SMILES): COC(=O)N[C@@H](C)CNc1nccc(-c2cn(C(C)C)nc2-c2cc(Cl)cc(NS(C)(=O)=O)c2F)n1 [Encorafenib, encorafenib, reference compound]
- concentration at 6 h ([2]; liver, 35 mg/kg, read-out: Concentration in Liver (mean ± SEM)): 481 ± 272 ng/g
- concentration at 6 h ([2]; plasma, 35 mg/kg, read-out: Concentration in Plasma (mean ± SEM)): 992 ± 559 ng/mL
